In PubChem BioAssay AID504610 (National Center for Advancing Translational Sciences (NCATS), 2011) one finds percent remaining data, which are given here for one molecule.

For this data set, the system named is mouse plasma stability, LC-MS/MS, 48 h. Kind of data set: Inhibitors of 12-hLO: Mouse Plasma Stability Profiling. To be noted: at 2 µM; active compounds read high. An excerpt:
Assay Provider: Holman, T.R., University of California, Santa Cruz Grant #: MH08128301 Screening Center PI: Austin, C.P. Screening Center: NIH Chemical Genomics Center [NCGC] Human lipoxygenase 12hLO is a member of the closely related lipoxygenase family of enzymes which catalyze the site-specific oxidation of arachidonic acid to various hormone precursor molecules and as such is a candidate for drug development in a variety of disease areas, such as cancer and inflammation. After qHTS, hits were confirmed in follow-up assays, and leads were optimized through SAR. The resulting lead compound was further characterized through a battery ADME-Tox experiments, and this assay describes its stability in mouse plasma. The stability of the lead compound in […] is tested because this parameter has a significant impact on many ADME-concerned properties of drugs, such as uptake, distribution, transport, and eventually bioavailability.
2microM of compound is incubated in PBS buffer at pH 7; the reference compound is procaine. Compounds are incubated at 37 deg C for the pre-determined time periods and the when aliquots are removed. Samples are analyzed with LC-MS/MS.

For the molecule `CC(=O)NC(c1cccs1)c1cc(Br)c2cccnc2c1O` (stereo unspecified), the percent remaining was 98.3%.
